Where “and” joins values, the source holds several entries; their conditions need not be identical. Equal values may be shown once.
Experiments:
[1] = test system: influenza A/H1N1pdm09, A/H3N2, and B viruses; experiment: Fever duration after NAI treatment in outpatients with laboratory confirmed influenza (observational study); assay type: in vivo, human; settings: for HR (Cox proportional hazards model of fever duration): multivariable analysis, compared to oseltamivir (reference 1.00); for Mean fever duration after NAI treatment: univariate analysis, all patients aged <20 years, all types/subtypes, from start of treatment to <37.5 °C
[2] = test system: influenza B; settings: patients aged 5 to 18 years, cited from earlier work
[3] = test system: oseltamivir-sensitive influenza A/H1N1pdm09 virus; assay type: in vivo; settings: oseltamivir-treated patients 0–5 years, oseltamivir-sensitive viruses, n = 111

## [H]/N=C(\N)N[C@H]1C=C(C(=O)O)O[C@@H]([C@H](OC)[C@H](O)CO)[C@@H]1NC(C)=O [Laninamivir, laninamivir]
[1]; age group 0 to 5 years
  Average fever duration: 75.8 h
[1]; age group 6 to 9 years
  Average fever duration: 42.9 h
[1]; age group 10 to 19 years
  Average fever duration: 36.6 h
[1]
  HR (Cox proportional hazards model of fever duration): 0.78
  Mean fever duration after NAI treatment: 39.8 h
[2]; P <0.01
  Median fever duration longer than for peramivir: 1 days
[2]
  Median fever duration after treatment: 3 days

## peramivir
[1]; age group 0 to 5 years
  Average fever duration: 46.3 h
[1]; age group 6 to 9 years
  Average fever duration: 31.3 h
[1]; age group 10 to 19 years
  Average fever duration: 32.3 h
[1]
  HR (Cox proportional hazards model of fever duration): 1.05
  Mean fever duration after NAI treatment: 38.3 h

## CC(=O)N[C@H]1[C@H]([C@H](O)[C@H](O)CO)OC(C(=O)O)=C[C@@H]1N=C(N)N [Zanamivir, zanamivir]
[1]; age group 0 to 5 years
  Average fever duration: 45.4 h
[1]; age group 6 to 9 years
  Average fever duration: 42.3 h
[1]; age group 10 to 19 years
  Average fever duration: 35.4 h
[1]
  HR (Cox proportional hazards model of fever duration): 0.87
  Mean fever duration after NAI treatment: 38.5 h

## CCOC(=O)C1=C[C@@H](OC(CC)CC)[C@H](NC(C)=O)[C@@H](N)C1 [Oseltamivir, oseltamivir]
[1]; age group 0 to 5 years
  Average fever duration: 42.2 h
[1]; age group 6 to 9 years
  Average fever duration: 37.3 h
[1]; age group 10 to 19 years
  Average fever duration: 29.8 h
[1]
  HR (Cox proportional hazards model of fever duration): 1.00
  Mean fever duration after NAI treatment: 40.1 h
[3]
  Average fever duration: 40 h and 40 ± 27 h
